From patent US20250002488A1, “Glioblastoma Multiforme Treatments” (Brown University, priority 2021, published 2025) come the findings set out here.

Assay [1] concerns GSCs. Kind of assay: two-week limiting dilution assay (LDA), self-renewal / neuro-sphere formation. The format is cell-based. The text has this:
A graph using an online algorism to score and assess the self-renew ability of GSCs treated with DMSO and HDAC class IIa inhibitor respectively (FIGS. 6B and 6D).
To validate whether HDAC-7 inhibition would present a phenotype change in primary GSCs, its effect on modifying the self-renewal of GSCs was examined, and since there is no small molecule drug currently available as a selective HDAC-7 inhibitor, the class IIa HDAC inhibitor, TMP269, that inhibits HDAC-4,5,7,9, was used. The two-week limiting dilution assay “LDA” that tests the frequency of self-renewing cells within a population was applied. […] Moreover, the same significant result was observed when testing GSCs from different genotypes (FIGS. 6A-6D).

The subject of assay [2] is GSCs. Kind of assay: cell viability assay by MTS. The assay is classed as cell-based. To be noted: increasing doses, 72 hrs. On the procedure:
Dose response curve for GSCs treated with Pan HDAC inhibitors TSA (Trichostatin A), SAHA (Vorinostat) versus the HDAC class IIa inhibitor (TMP269). Cell viability assay was determined by MTS after the treatment with increasing doses of each corresponding drug at time point 72 hrs with P-value <0.0001.
HDAC-7 has been crystalized, and like other members of class I, II, and IV, HDAC-7 binds to the substrates through a zinc mediated charge relay system. Class IIa HDAC has another specific zinc-binding motif adjacent to the active site, which directs the recognition and protein-protein interaction. However, there is remarkable structural diversity in HDAC-7 found in loop regions around the active site entrance that poses a challenge to generation of inhibitors.

Consider `O=C(NCC1(c2nc(-c3ccccc3)cs2)CCOCC1)c1cccc(-c2noc(C(F)(F)F)n2)c1` [TMP269], for which the “neuro-sphere formation of GSCs” value with GSCs [1] (2-week limiting dilution assay, versus DMSO control) was “unable to form neuro-spheres”. Also, the “self-renewal of GSCs (ability to form neuro-spheres, algorithmic scoring)” value with GSCs [1] (two-week LDA, versus DMSO-treated control cells, GSCs from different genotypes) is given as “significant decrease”. For the same compound, the GSC cell viability entry with GSCs [2] was “decreases the GSCs' viability”.

On to `O=C(CCCCCCC(=O)Nc1ccccc1)NO` [Vorinostat], for which the GSC cell viability result in the assay with GSCs [2] is “inhibitory trend”.
